Reference: PubChem BioAssay AID2060906 (Molecular Pharmacology Branch, DTP, NCI, 2025)

Tested on: 485176-168-R4-J1-PDC complex spheroid growth
Experiment: Anticancer human tumor 485176-168-R4-J1-PDC patient-derived pancreatic adenocarcinoma cell line growth inhibition [RAS]
Settings: for viability, T/C: stronger effect = lower value
Excerpt: RAS pathway inhibitors in Combinations in Complex Spheroids
A high-throughput screen of multi-cell type tumor spheroids was designed to identify active combinations of RAS pathway inhibitors and targeted small molecules. Complex spheroids include a stromal component modeled by human endothelial cells (HUVEC) and fibroblasts modeled by human mesenchymal stem cells (MSCs). The concentration ranges selected for each drug and investigational agent were based upon clinically achievable concentrations if the clinical Cmax of the agent was known.
Compounds. The drugs and investigational agents: abemaciclib (NSC768073), cobimetinib (NSC768068), divarasib (GDC6063, NSC841802), docetaxel (NSC628503), GDC-1971 (RLY-1971, NSC841576), gemcitabine (NSC613327), inavolisib (NSC800729), ipatasertib (NSC767898), KB-0742 (NSC834161), MRTX-1133 (NSC836407), osimertinib (NSC779217), RMC-4630 (NSC839698), RMC-6236 (NSC851965), RMC-6291 (NSC852671), Ro-3306 (NSC812927), sapanisertib (NSC764658), SN-38 (NSC673596), staurosporine (NSC755774), SY5609 (NSC837396), and tovorafenib (DAY101, NSC766906), were obtained from the National Cancer Institute (NCI) Developmental Therapeutics Program Chemical Repository. The FDA-approved anticancer drug set is available from the NCI Developmental Therapeutics Program. […] The stock solutions were prepared in dimethyl sulfoxide (DMSO, Sigma-Aldrich, St. Louis, MO, cat. D2650) at 800-fold the tested concentration and stored at -70 degrees C prior to their use. All drugs and investigational agents were tested over a range starting from a high concentration at or near the clinical Cmax and decreasing in half-log increments. If the clinical Cmax for an agent had not been determined, the highest concentration tested was 10 microM.
Cell Culture. All cells were maintained in an incubator at 37 degrees C and 5% CO2 with 95% humidity. The PDC lines were cultured according to standard operating procedures established by the NCI PDMR. All PDCs were thawed and cultured in Matrigel-coated flasks prepared with a working solution of 1X Ham's F-12 nutrient mix, without supplementation (Invitrogen, Waltham, MA, cat. 11765054), 100 U/mL penicillin-streptomycin (Invitrogen, cat. 15140122), and 2.5% Matrigel (Corning Inc., Corning, NY, cat. 354248) for the first three passages. The 362531-283-R-J2-PDC and 782815-120-R-J1-PDC lines were cultured in 6C/Colon 1B media, which includes advanced DMEM/F-12 (Thermo Fisher Scientific, cat. 12634028), 10 mM HEPES (Thermo Fisher Scientific, cat. 15630080), 1X GlutaMAX supplement (Thermo Fisher Scientific, cat. 35050061), 0.1 mg/mL primocin (InvivoGen, San Diego, CA, cat. ant-pm-2), 10% defined fetal bovine serum, heat inactivated (HyClone Laboratories Inc., Logan, UT, cat. SH30070.03HI), 50% L-WRN conditioned media (ATCC, cat. CRL-3276), 1.25 mM N-Acetyl-L-cysteine (Sigma-Aldrich, cat. A9165), 10 mM nicotinamide (Sigma-Aldrich, cat. N0636), 1X B-27 supplement (Thermo Fisher Scientific, cat. 17504044), 1X N-2 supplement (Thermo Fisher Scientific, cat. 17502048), 50 ng/mL human EGF (Thermo Fisher Scientific, cat. PHG0311), and 10 microM Y-27632 dihydrochloride (Tocris Bioscience, cat. 1254). The K12877-001-R-J1-PDC line was cultured in 6I media, which includes all 6C/Colon 1B media plus 10 ng/mL human FGF-10 (PeproTech, cat. 100-26), 1 ng/mL human FGF-2 (PeproTech, cat. 100-18B), 1 µM prostaglandin E2 (Tocris Bioscience, cat. 2296), […] hydrocortisone (Sigma-Aldrich, cat. H4001), and […] bovine insulin (Sigma-Aldrich, cat. I6634). The K86415-001-R-J1-PDC line was cultured in 6D media, which includes all 6C/Colon 1B media components minus the L-WRN conditioned media. The 485176-168-R4-J1-PDC was cultured in PANC media, which includes all 6C/Colon 1B media plus 100 ng/mL human FGF-10 (PeproTech, cat. 100-26), 500 nM SB-431542 (Selleckchem, cat. S1067), and 10 nM gastrin (Tocris Bioscience, cat. 3006). […]
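Further: spheroids exposed to compounds for seven days before readout.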
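Wherever viability, T/C is given: luminescence viability expressed relative to DMSO vehicle wells set as 100%.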

CC1(C)CCC(Nc2ncc(C(F)(F)F)c(-c3c[nH]c4c(P(C)(C)=O)c(C#N)ccc34)n2)CN1 (stereo not drawn) + C=CC(=O)N1CCN(c2nc(OCC3CCCN3C)nc3c(F)c(-c4nc(N)cc(C)c4C(F)(F)F)c(Cl)cc23)C(C)C1
IC50 (curve of first compound, second compound 0.00316 µM): > 300 nM
IC50 (curve of first compound, second compound 0.01 µM): 80.8 nM
IC50 (curve of first compound, second compound 0.0316 µM): > 300 nM
IC50 (curve of first compound, second compound 0.1 µM): 133 nM
IC50 (curve of first compound, second compound 0.316 µM): 43.1 nM
IC50 (curve of first compound, second compound 1 µM): 94.4 nM
viability, T/C (second compound 0.00316 µM, first compound 0.000949 µM): 116%
viability, T/C (second compound 0.00316 µM, first compound 0.003 µM): 109%
viability, T/C (second compound 0.00316 µM, first compound 0.00949 µM): 85.6%
viability, T/C (second compound 0.00316 µM, first compound 0.03 µM): 60%
viability, T/C (second compound 0.00316 µM, first compound 0.0949 µM): 46.2%
viability, T/C (second compound 0.00316 µM, first compound 0.3 µM): 55.6%
viability, T/C (second compound 0.01 µM, first compound 0.000949 µM): 122%
viability, T/C (second compound 0.01 µM, first compound 0.003 µM): 98.9%
viability, T/C (second compound 0.01 µM, first compound 0.00949 µM): 75.7%
viability, T/C (second compound 0.01 µM, first compound 0.03 µM): 53.9%
viability, T/C (second compound 0.01 µM, first compound 0.0949 µM): 48.4%
viability, T/C (second compound 0.01 µM, first compound 0.3 µM): 48.1%
viability, T/C (second compound 0.0316 µM, first compound 0.000949 µM): 100%
viability, T/C (second compound 0.0316 µM, first compound 0.003 µM): 105%
viability, T/C (second compound 0.0316 µM, first compound 0.00949 µM): 81.5%
viability, T/C (second compound 0.0316 µM, first compound 0.03 µM): 59.5%
viability, T/C (second compound 0.0316 µM, first compound 0.0949 µM): 51%
viability, T/C (second compound 0.0316 µM, first compound 0.3 µM): 49.1%
viability, T/C (second compound 0.1 µM, first compound 0.000949 µM): 102%
viability, T/C (second compound 0.1 µM, first compound 0.003 µM): 84.8%
viability, T/C (second compound 0.1 µM, first compound 0.00949 µM): 80.4%
viability, T/C (second compound 0.1 µM, first compound 0.03 µM): 63.8%
viability, T/C (second compound 0.1 µM, first compound 0.0949 µM): 47.2%
viability, T/C (second compound 0.1 µM, first compound 0.3 µM): 47.8%
viability, T/C (second compound 0.316 µM, first compound 0.000949 µM): 92.7%
viability, T/C (second compound 0.316 µM, first compound 0.003 µM): 104%
viability, T/C (second compound 0.316 µM, first compound 0.00949 µM): 81%
viability, T/C (second compound 0.316 µM, first compound 0.03 µM): 52%
viability, T/C (second compound 0.316 µM, first compound 0.0949 µM): 52.1%
viability, T/C (second compound 0.316 µM, first compound 0.3 µM): 44.2%
viability, T/C (second compound 1 µM, first compound 0.000949 µM): 108%
viability, T/C (second compound 1 µM, first compound 0.003 µM): 106%
viability, T/C (second compound 1 µM, first compound 0.00949 µM): 82.8%
viability, T/C (second compound 1 µM, first compound 0.03 µM): 57%
viability, T/C (second compound 1 µM, first compound 0.0949 µM): 52.2%
viability, T/C (second compound 1 µM, first compound 0.3 µM): 46.9%

C#Cc1c(F)ccc2cc(O)cc(-c3ncc4c(N5CC6CCC(C5)N6)nc(OCC56CCCN5CC(F)C6)nc4c3F)c12 (stereo not drawn)
viability, T/C (compound 0.1 µM): 102% [middle of 8 runs]
viability, T/C (compound 0.316 µM): 97.6% [middle of 8 runs]
viability, T/C (compound 1 µM): 94% [middle of 8 runs]
viability, T/C (compound 3.16 µM): 99.5% [middle of 8 runs]
viability, T/C (compound 10 µM): 95.7% [middle of 8 runs]
IC50 (compound alone, run of 06/10/2024): > 10000 nM
